Measurements taken from patent US20110230485A1, “6-PHENYL-PYRIMIDIN-4-YL-(PHENYLAMINE OR PHENOXY) DERIVATIVES USEFUL AS MODULATORS OF NICOTINIC ACETYLCHOLINE RECEPTORS” (NEUROSEARCH A/S, priority 2008, published 2011).

How the values were obtained:
[1] = target: T1, wild-type nAChR α7 receptors (Homo sapiens, UniProt P36544); test: Positive modulation of nAChR α7 receptors expressed in Xenopus laevis oocytes, two-electrode voltage clamp; type: cell-based; details: oocytes clamped at −60 mV; for Emax: read-out: Imax; for EC50: positive modulation of current induced by 100 μM acetylcholine, test compound 0.01-31.6 μM applied 30 s before and during acetylcholine
T1 construct: expressed in transfected cells; host or cells: Xenopus laevis oocytes
T1 sequence (P36544 23-502): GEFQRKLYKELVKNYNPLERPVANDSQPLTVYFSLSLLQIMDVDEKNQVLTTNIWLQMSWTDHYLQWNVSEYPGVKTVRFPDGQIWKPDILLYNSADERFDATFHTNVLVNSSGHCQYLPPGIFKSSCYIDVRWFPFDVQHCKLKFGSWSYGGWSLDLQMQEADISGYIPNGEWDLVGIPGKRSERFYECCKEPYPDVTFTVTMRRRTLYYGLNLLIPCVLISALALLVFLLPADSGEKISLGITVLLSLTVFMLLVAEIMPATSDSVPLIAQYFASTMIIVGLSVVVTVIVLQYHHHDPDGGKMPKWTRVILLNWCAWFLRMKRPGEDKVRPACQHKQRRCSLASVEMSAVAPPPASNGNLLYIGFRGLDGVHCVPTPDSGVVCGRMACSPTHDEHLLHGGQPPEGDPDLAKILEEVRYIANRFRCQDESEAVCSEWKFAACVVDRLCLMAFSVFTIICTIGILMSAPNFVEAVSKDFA
Method: In this example the positive modulation of wild-type nAChR α7 receptors by the compounds of the invention was determined using nAChR α7 receptors heterologously expressed in Xenopus laevis oocytes.
The electrical current through the nAChR α7 channel was measured using conventional two-electrode voltage clamp and nAChR α7 currents were activated by applying pulses of agonist-containing solution onto the nAChR α7 expressing oocyte.
In brief, the oocytes were placed in a recording chambers and continuously super-fused with an Oocyte Ringer (OR) solution containing 90 mM NaCl, 2.5 mM KCl, 2.5 mM CaCl2, 1 mM MgCl2 and 5 mM HEPES (pH adjusted to 7.4). The oocytes were clamped at −60 mV and currents were induced by applying 20 s pulses of 100 μM acetylcholine dissolved in OR. The intervals between the acetylcholine applications were 5 minutes, during which the oocytes were washed with OR. The first three applications were control applications to insure a constant response level of 100 μM acetylcholine. For the subsequent test applications, increasing concentrations (0.01-31.6 μM) of the test compound were applied 30 s before and during the acetylcholine (100 μM) application, which caused a robust increase in the acetylcholine-induced current amplitude.
The positive modulation in the presence of Compound was calculated as (test-control)/control×100% and the concentration response curve for this positive modulation was fitted to the sigmoidal logistic equation:
I=Imax/(1+(EC50/[compound])^n),
where Imax represents the maximal modulation of the control response, EC50 is the concentration causing a half maximal response, and n is the slope coefficient.

[2] = maximal modulation of the control response to 100 μM acetylcholine, (test-control)/control×100%

SMILES	Emax [1, 2]	EC50 [1]	Imax [1, 2]	melting point
COc1cccc(Nc2nc(C)nc(-c3ccc(C(F)(F)F)cc3F)c2N)c1 [Compound 1.31, 6-(2-Fluoro-4-trifluoromethyl-phenyl)-N*4*-(3-methoxy-phenyl)-2-methyl-pyrimidine-4,5-diamine]	193%	5.7 µM		
CSc1cccc(Nc2nc(C)nc(-c3ccc(C(F)(F)F)cc3F)c2N)c1 [Compound 1.32, 6-(2-Fluoro-4-trifluoromethyl-phenyl)-2-methyl-N*4*-(3-methylsulfanyl-phenyl)-pyrimidine-4,5-diamine]	245%	9.8 µM		
Nc1c(Nc2ccc(O)nc2)ncnc1-c1ccc(C(F)(F)F)cc1F [Compound 1.11, 5-[5-Amino-6-(2-fluoro-4-trifluoromethyl-phenyl)-pyrimidin-4-ylamino]-pyridin-2-ol]	22%			
Cc1ccc(Nc2nc(C)nc(-c3ccc(C(F)(F)F)cc3F)c2N)cc1 [Compound 1.27, 6-(2-Fluoro-4-trifluoromethyl-phenyl)-2-methyl-N*4*-p-tolyl-pyrimidine-4,5-diamine]	503%	3.4 µM		
COc1ccc(Oc2ncnc(-c3ccc(C(F)(F)F)cc3F)c2N)cc1 [Compound 2.2, 4-(2-Fluoro-4-trifluoromethyl-phenyl)-6-(4-methoxy-phenoxy)-pyrimidin-5-ylamine]	119%	6.6 µM		
Nc1c(Nc2ccc(S(N)(=O)=O)cc2)ncnc1-c1ccc(C(F)(F)F)cc1F [Compound 1.8, 4-[5-Amino-6-(2-fluoro-4-trifluoromethyl-phenyl)-pyrimidin-4-ylamino]-benzenesulfonamide]	237%	6.8 µM		
Nc1c(Oc2ccc(O)cc2)ncnc1-c1ccc(C(F)(F)F)cc1F [Compound 2.3]	104%	15 µM		
COc1ccc(Nc2ncnc(-c3ccc(C(F)(F)F)cc3F)c2[N+](=O)[O-])cn1 [Compound 1.5, [6-(2-Fluoro-4-trifluoromethyl-phenyl)-5-nitro-pyrimidin-4-yl]-(6-methoxy-pyridin-3-yl)-amine]	137%	6.6 µM		
COc1ccc(Nc2ncnc(-c3ccc(C(F)(F)F)cc3F)c2N)cn1 [Compound 1.6, 6-(2-Fluoro-4-trifluoromethyl-phenyl)-N*4*-(6-methoxy-rwridin-3-yl)-pyrimidine-4,5-diamine]			129%	
Cc1nc(Nc2ccc3ccccc3c2)c(N)c(-c2ccc(C(F)(F)F)cc2F)n1 [Compound 1.34, 6-(2-Fluoro-4-trifluoromethyl-phenyl)-2-methyl-N*4*-naphthalen-2-v1-pyrimidine-4,5-diamine]	148%	4.3 µM		
Nc1c(Nc2ccc3[nH]ccc3c2)ncnc1-c1ccc(C(F)(F)F)cc1F [Compound 1.10, 6-(2-Fluoro-4-trifluoromethyl-phenyl)-N*4*-(1H-indol-5-yl)-pyrimidine-4,5-diamine]	631%	0.24 µM		
O=[N+]([O-])c1c(Nc2ccc3[nH]ccc3c2)ncnc1-c1ccc(C(F)(F)F)cc1F [Compound 1.9, [6-(2-Fluoro-4-trifluoromethyl-phenyl)-5-nitro-pyrimidin-4-yl]-(1H-indol-5-yl)-amine]	527%	6.9 µM		
Cc1nc(Nc2ccc3c(c2)OCCO3)c(N)c(-c2ccc(C(F)(F)F)cc2F)n1 [Compound 1.29, N*4*-(2,3-Dihydro-benzo[1,4 dioxin-6-yl)-6-(2-fluoro-4-trifluoromethyl-phenyl)-2-methyl-pyrimidine-4,5-diamine]	297%	9.4 µM		
COc1ccc(Oc2nc(C)nc(-c3ccc(C(F)(F)F)cc3F)c2N)cc1 [Compound 2.13, 4-(2-Fluoro-4-trifluoromethyl-phenyl)-6-(4-methoxy-phenoxy)-2-methyl-pyrimidin-5-ylamine]	42%	6 µM		
Cc1nc(Oc2ccc3c(c2)OCO3)c(N)c(-c2ccc(C(F)(F)F)cc2F)n1 [Compound 2.9]	35%	0.74 µM		
COc1ccc(Nc2ncnc(-c3ccc(C(F)(F)F)cc3F)c2[N+](=O)[O-])cc1 [Compound 1.1, [6-(2-Fluoro-4-trifluoromethyl-phenyl)-5-nitro-pyrimidin-4-yl]-(4-methoxy-phenyl)-amine]	2%			155.6 to 155.8 °C
COc1ccc(Nc2ncnc(-c3ccc(C(F)(F)F)cc3F)c2N)cc1 [Compound 1.3, 6-(2-Fluoro-4-trifluoromethyl-phenyl)-N*4*-(4-methoxy-Phenyl)-pyrimidine-4,5-diamine]		2.3 µM		212.1 to 213.2 °C
Nc1c(Nc2ccc(OCC3CC3)cc2)ncnc1-c1ccc(C(F)(F)F)cc1F [Compound 1.14, N*4*-(4-Cyclopropylmethoxy-phenyl)-6-(2-fluoro-4-trifluoromethyl-phenyl)-pyrimidine-4,5-diamine]	3%			
Nc1c(Nc2ccc3c(c2)OCO3)ncnc1-c1ccc(C(F)(F)F)cc1F [Compound 1.13, N*4*-Benzo[1,3]dioxol-5-yl-6-(2-fluoro-4-trifluoromethyl-phenyl)-pyrimidine-4,5-diamine]	848%	54 µM		
COc1ccc(Nc2nc(C)nc(-c3ccc(C(F)(F)F)cc3F)c2N)c(OC)c1 [Compound 1.33, N*4*-(2,4-Dimethoxy-phenyl)-6-(2-fluoro-4-trifluoromethyl-phenyl)-2-methyl-pyrimidine-4,5-diamine]	11%	1.1 µM		
Nc1c(Nc2ccc(O)cc2)ncnc1-c1ccc(C(F)(F)F)cc1F [Compound 1.4, 4-[5-Amino-6-(2-fluoro-4-trifluoromethyl-phenyl)-pyrimidin-4-ylamino]-phenol]				194.2 to 195.7 °C
Nc1c(Nc2ccc3[nH]ncc3c2)ncnc1-c1ccc(C(F)(F)F)cc1F [Compound 1.12, 6-(2-Fluoro-4-trifluoromethyl-phenyl)-N*4*-(1H-indazol-5-yl)-pyrimidine-4,5-diamine]	184%	9.9 µM		
COc1ccc(Oc2ncnc(-c3ccc(C(F)(F)F)cc3F)c2[N+](=O)[O-])cc1 [Compound 2.1, 4-(2-Fluoro-4-trifluoromethyl-phenyl)-6-(4-methoxy-phenoxy)-5-nitro-pyrimidine]	19%			
O=[N+]([O-])c1c(Nc2ccc(O)cc2)ncnc1-c1ccc(C(F)(F)F)cc1F [Compound 1.2, 4-[6-(2-Fluoro-4-trifluoromethyl-phenyl)-5-nitro-pyrimidin-4-ylamino]-phenol]	391%	23 µM		169 to 171.5 °C
COc1ccc(Nc2nc(C)nc(-c3ccc(C(F)(F)F)cc3F)c2N)cc1 [Compound 1.16, 6-(2-Fluoro-4-trifluoromethyl-phenyl)-N*4*-(4-methoxy-phenyl)-2-methyl-pyrimidine-4,5-diamine]	495%	4.9 µM		
